The test system of one data set is tumor. Put plainly: Anti-tumor activity compared with a compound of the invention (no method given). Particulars: compared with a respective comparative compound according to the invention.
The next data set relates to leukemic cells of L-1210. The data set is described as follows: Effect on the life span of mice implanted with leukemic cells of L-1210 (method B). The format is in vivo. Particulars: for ILS (%): Increase in Life Span; for 60-day survivors: mice survived for 60 days/mice used. As to the method: (B) Effect on the life span of mice implanted with leukemic cells of L-1210:
10^5 leukemic cells of L-1210were inoculated intraperitoneally into a group of four male mice (BDF1 mice, body weight: 19-23 g). A test compound was dissolved in a physiological saline solution and administered intraperitoneally to the mice. The administration of the test compound was begun 24 hours after the inoculation of the leukemic cells and performed once a day for 5 days. The survival days of the treated mice were observed.

Data set [1] has as its system Ehrlich ascites carcinoma. The data set is described as follows: Preventive effect against the growth of Ehrlich ascites tumor (method A). The format is in vivo, mice. As for the experimental part:
(§1) (A) Preventive effect against the growth of Ehrlich ascites tumor:
(§2) 10^6 tumor cells of Ehrlich ascites carcinoma were inoculated intraperitoneally into a group of five female mice (ICR mice, body weight: 19-23 g). A test compound was dissolved in a physiological saline solution. (In the case where CCNU was employed as the test compound, said compound was suspended in a physiological saline solution containing 0.1% NIKKOL HCO-60 (trademark; a surface active agent manufactured by Nikko Chemicals Co. Ltd.)) and administered intraperitoneally to the mice. The administration of the test compound was begun 24 hours after the inoculation of the tumor cells and performed once a day for 5 days. The volume of ascites in the treated mice were measured after 7 days of the experiment.

Assay in data set [2]: as above
The format is in vivo, mice. The note with it: mouse, in vivo, ip; Maximum Tolerated Dose: maximum dose with 100% inhibition of Ehrlich ascites tumor growth without death of mice; dose column in mg/kg/day. As to the method: as §1, §2

[3] abbreviates: dose 6.25 mg/kg/day i.p. x 5 days.
Setting [4] is: dose 12.5 mg/kg/day i.p. x 5 days.
[5] abbreviates: dose 25 mg/kg/day i.p. x 5 days.

As usually defined, the MTD is the largest dose that counted as tolerated. Lower therefore signals a narrow tolerated range.

Marks after values point to notes of the source that are not given here.

As for `O=C(NCCCl)N[C@H]1[C@H](O)[C@@H](CO)OC(O)[C@@H]1O` (some centres unmarked) [3 - [3 - (2 - chloroethyl)ureido] - 3 - deoxy - D - glucopyranose], in the data set on tumor, the anti-tumor activity result is “lower anti-tumor activity”.

As for `C=CCN(C(=O)N(CCCl)N=O)[C@@H]1[C@@H](O)[C@@H](OC)O[C@H](CO)[C@H]1O` [Compound 4, 1 - (2 - chloroethyl) -1 - nitroso - 3 - allyl - 3 - (methyl 3 - deoxy - α - D - glucopyranosid - 3 - yl)urea], the figures for the “ILS (%)” value with leukemic cells of L-1210 (setting [3]), with leukemic cells of L-1210 (setting [4]) and in the data set on leukemic cells of L-1210 (setting [5]) were 80.2%, over 597.7% and over 496.5%, respectively. Besides, the “Mean survival days (T/C)” value is 15.5/8.6 days in the data set with leukemic cells of L-1210 (T (treated mice), dose 6.25 mg/kg/day i.p. x 5 days); >60.0/8.6 days in the data set with leukemic cells of L-1210 (T (treated mice), dose 12.5 mg/kg/day i.p. x 5 days); >51.3/8.6 days in the data set with leukemic cells of L-1210 (T (treated mice; figure after the slash is untreated control C), dose 25 mg/kg/day i.p. x 5 days). Also, the 60-day survivors in the data set on leukemic cells of L-1210 (setting [3]) is 0/4; with leukemic cells of L-1210 (setting [4]), 4/4; with leukemic cells of L-1210 (setting [5]), 3/4. This compound also yielded a Therapeutic index in data set [1] (M. T. D./M. E. D.) of 128. In addition, in data set [1] (Mus musculus, Ehrlich, ip, 168 h, dose 0.097 mg/kg/day i.p. x 5 days, read-out: Inhibition ratio (%)), the inhibition in vivo at 0.097 mg/kg/day stood at 29.7%. Further, in data set [1] (Mus musculus, Ehrlich, ip, 168 h, dose 0.195 mg/kg/day i.p. x 5 days, read-out: Inhibition ratio (%)), the inhibition in vivo at 0.195 mg/kg/day was found to be 100%. The inhibition in vivo at 0.39 mg/kg/day in data set [1] (Mus musculus, Ehrlich, ip, 168 h, dose 0.39 mg/kg/day i.p. x 5 days, read-out: Inhibition ratio (%)) stood at 100%. Also, in data set [1] (Mus musculus, Ehrlich, ip, 168 h, dose 1.56 mg/kg/day i.p. x 5 days, read-out: Inhibition ratio (%)), the inhibition in vivo at 1.56 mg/kg/day stood at 100%. In addition, the inhibition in vivo at 6.25 mg/kg/day in data set [1] (Mus musculus, Ehrlich, ip, 168 h, dose 6.25 mg/kg/day i.p. x 5 days, read-out: Inhibition ratio (%)) amounted to 100%. In addition, the inhibition in vivo at 25 mg/kg/day in data set [1] (Mus musculus, Ehrlich, ip, 168 h, dose 25 mg/kg/day i.p. x 5 days, read-out: Inhibition ratio (%)) was determined as 100%. Also, in data set [1] (Mus musculus, Ehrlich, ip, 168 h, minimum effective dose which shows 100% inhibition for the growth of the ascites tumor, dose column in mg/kg/day, read-out: MED), the minimal effective dose stood at 0.195 mg/kg/day. For the same compound, in data set [1] (dose 50 mg/kg/day i.p. x 5 days, group of five mice), the “Toxic” value is reported as “Toxic (3/5)*”. This compound also returned an MTD at 168 h in data set [2] of 25 mg/kg/day.

Source of the values: EP0056458B1, “Nitrosourea derivatives, a process for preparing same and therapeutic compositions” (Tanabe Seiyaku Co., Ltd., priority 1981, dated 1982).
